Read-outs that look alike come from different tables or passages of the source.
Assays:
[1] = target: T1, human STING (Homo sapiens, UniProt Q86WV6); assay: surface plasmon resonance (SPR)-based hSTING binding assay; details: for kon: read-out: Ka; for Kd: KD = Kd/Ka
T1 construct: N-terminal cysteine (thiol coupling handle)
Excerpt: Direct measurement of affinity constants provide assistance in pharmacokinetic and pharmacodynamic studies. In this study, we evaluated the binding affinities between human STING and the synthesized CNDs by the surface plasmon resonance (SPR)-based assay, which loaded minuscule amounts of STING protein on a biosensor chip, and free-labeled samples were directly detected in short measurement times.
hSTING was firstly immobilized on a CM5 sensor chip via a N-terminal cysteine thiol group, without altering conformation or binding activity. […] Kinetic parameters generally give both an aggregation constant (ka) and a disaggregation constant (kd), from which the equilibrium dissociation constant KD can be calculated by KD = Kd/Ka.
SPR system was primed using the manufacturer’s HEPES-buffered saline at 25 °C. CM5 chips were warmed to room temperature on the bench before being added to the system. SPR surfaces were cleaned and conditioned (separate injections of 50 mM NaOH, 1 M NaCl, 0.1% SDS and 10 mM HCl, each for 60 s at 10 μL/min) prior to normalization using the manufacturer’s 70% glycerol solution (GE Healthcare). STING was prepared at 100 μg/mL in SPR running buffer with no DMSO and injected twice onto channel 2 for 600 s at 5 μL/min.
Cyclic dinucleotides were prepared to 1-mM stocks in SPR running buffer. A 12-concentrations dilution series, including a blank containing no substrate, were made and diluted in a 96-well polypropylene Greiner plate. Plates were spun and then placed at 4 °C until experimentation. Experiments were performed at 60 μL/min with data collected every 0.1s.

[2] = tested on: THP-1 cells; assay: IFN-β production in THP-1 cells by ELISA; details: 1 μM, 18 h
Procedure: The IFN-β levels in the cell culture supernatants were measured using the ELISA kits (Meimian Biotechnology, Jiangsu, China), according to the manufacturer’s instructions.

[3] = SPR, hSTING immobilized on CM5 chip, 25 °C

T1 sequence (Q86WV6 whole entry): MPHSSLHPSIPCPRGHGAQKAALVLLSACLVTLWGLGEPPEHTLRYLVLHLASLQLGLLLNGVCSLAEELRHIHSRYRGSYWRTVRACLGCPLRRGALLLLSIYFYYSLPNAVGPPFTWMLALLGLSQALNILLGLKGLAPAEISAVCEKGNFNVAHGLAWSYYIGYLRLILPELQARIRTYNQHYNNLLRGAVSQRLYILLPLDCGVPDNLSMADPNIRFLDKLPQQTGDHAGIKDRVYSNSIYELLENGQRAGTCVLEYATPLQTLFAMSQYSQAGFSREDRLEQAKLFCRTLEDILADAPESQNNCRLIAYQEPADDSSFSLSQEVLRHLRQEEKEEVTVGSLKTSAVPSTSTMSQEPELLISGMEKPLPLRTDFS

**Q.** Which “dissociation rate constant koff” value [1, 3] does the source give for `Cc1cn([C@@H]2O[C@@H]3COP(=O)(O)O[C@@H]4[C@H](O)[C@@H](COP(=O)(O)O[C@H]3[C@H]2O)O[C@H]4n2cnc3c(=O)[nH]c(N)nc32)c(=O)[nH]c1=O` [Compound 8a, 2′,3′-cyclic-guanosine-5-methyluridine] here?
**A.** Its value is 0.002649 s⁻¹.

**Q.** And the kon [1, 3]?
**A.** The kon was 349 M⁻¹ s⁻¹.

**Q.** What about the Kd ([1]; SPR) of the same compound?
**A.** The Kd was 7.58 µM.

**Q.** How did the “dissociation rate constant koff” value [1, 3] turn out when `Cc1cn([C@@H]2O[C@@H]3COP(O)(=S)O[C@@H]4[C@H](O)[C@@H](COP(O)(=S)O[C@H]3[C@H]2O)O[C@H]4n2cnc3c(=O)[nH]c(N)nc32)c(=O)[nH]c1=O` (stereo partly shown) [Compound 8b, 2′,3′-cyclic-guanosine(PS)-5-methyluridine(PS)] was run?
**A.** The value was 0.0001339 s⁻¹.

**Q.** What about the kon [1] of the same compound?
**A.** The kon was 233 M⁻¹ s⁻¹.

**Q.** What about the “production of IFN-β (ELISA)” value [2] of the same compound?
**A.** Its value is “more IFN-β than the corresponding phosphodiester analogs”.

**Q.** How did the “dissociation rate constant koff” value [1, 3] turn out when `Cc1cn(C2OC3COP(=O)(O)OC4C(O)C(COP(=O)(O)OC3C2O)OC4n2cnc3c(=O)[nH]c(N)nc32)c(=O)nc1N` (stereo not shown) [Compound 8c, 2′,3′-cyclic-guanosine-5-methylcytidine] was run?
**A.** Its value is 1.397e-05 s⁻¹.

**Q.** What about the kon [1, 3] of the same compound?
**A.** Its kon is 152 M⁻¹ s⁻¹.

**Q.** What about the Kd ([1]; SPR) of the same compound?
**A.** The Kd was 0.092 µM.

**Q.** With `Cc1cn([C@@H]2O[C@@H]3COP(=O)(O)O[C@H]4[C@@H](O)[C@H](n5cnc6c(N)ncnc65)O[C@@H]4COP(=O)(O)O[C@@H]2[C@@H]3O)c(=O)[nH]c1=O` [Compound 12a, 2′,3′-cyclic-5-methyluridine-adenosine] as the compound, how does the “dissociation rate constant koff” value [1, 3] read?
**A.** The value was 0.002431 s⁻¹.

**Q.** And the kon [1, 3]?
**A.** Its kon is 208 M⁻¹ s⁻¹.

**Q.** What about the Kd ([1]; SPR) of the same compound?
**A.** The Kd was 11.7 µM.

**Q.** How did the “dissociation rate constant koff” value [1, 3] turn out when `Cc1cn([C@@H]2O[C@@H]3COP(O)(=S)O[C@H]4[C@@H](O)[C@H](n5cnc6c(N)ncnc65)O[C@@H]4COP(O)(=S)O[C@@H]2[C@@H]3O)c(=O)[nH]c1=O` (stereo partly shown) [Compound 12b, 2′,3′-cyclic-5-methyluridine(PS)-adenosine(PS)] was run?
**A.** Its value is 0.0009865 s⁻¹.

**Q.** What about the kon [1, 3] of the same compound?
**A.** The kon was 289 M⁻¹ s⁻¹.

**Q.** What about the Kd ([1]; SPR) of the same compound?
**A.** Its Kd is 3.41 µM.

**Q.** And the “production of IFN-β (ELISA)” value [2]?
**A.** Its value is “more IFN-β than the corresponding phosphodiester analogs”.

**Q.** Which “dissociation rate constant koff” value [1, 3] does the source give for `Cc1cn([C@@H]2O[C@@H]3COP(=O)(O)O[C@H]4[C@@H](O)[C@H](n5cnc6c(N)ncnc65)O[C@@H]4COP(=O)(O)O[C@@H]2[C@@H]3O)c(=O)nc1N` [Compound 12c, 2′,3′-cyclic-5-methylcytidine-adenosine] here?
**A.** Its value is 0.0007331 s⁻¹.

**Q.** And the kon [1, 3]?
**A.** Its kon is 198 M⁻¹ s⁻¹.

**Q.** And the Kd ([1]; SPR)?
**A.** Its Kd is 3.7 µM.
